The values below are quoted from earlier work in patent US20020037899A1, “Compositions containing an inhibitor of dihydrofolate reductase and a folate” (priority 2000, published 2002).

The subject of series [1] is rheumatoid arthritis patients receiving methotrexate. Conditions: for reduction in mucosal and gastrointestinal side effect: folic acid or folinic acid administered to rheumatoid arthritis patients receiving methotrexate.
Test in series [2]: not given
This is another data set of the same source.

Molecules are shown by their SMILES.

As to `Nc1nc(=O)c2c([nH]1)NCC(CNc1ccc(C(=O)N[C@@H](CCC(=O)O)C(=O)O)cc1)N2C=O` (mixture of isomers) [folinic acid], the “reduction in mucosal and gastrointestinal side effect” value in series [1] is listed as 79%. In addition, the “effect on disease symptoms such as painful joints” value in series [1] (high dosages of folinic acid, rheumatoid arthritis patients receiving methotrexate) is listed as “increase in disease symptoms”.
As for `Nc1nc2ncc(CNc3ccc(C(=O)N[C@@H](CCC(=O)O)C(=O)O)cc3)nc2c(=O)[nH]1` [folic acid], the solubility in water is 1.6 mg per ml. Also, in series [1], the “reduction in mucosal and gastrointestinal side effect” value is 79%. In addition, the “stable to heating at temperatures” value in series [2] is “below 200 °C”.
